US5369111A, “Modulator agent and use thereof” (University of Vermont, priority 1992, dated 1994)

Experiments:
[1] = test system: S180 MDR cell strains A3 and A10; test: Modulation of acquired drug resistance in the S180 MDR cell strains A3 and A10; type: cell-based, murine; settings: VBL, VCR and ADM
How it was run: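 MDR S180 lines in tubes (1×10^5 cells/ml) exposed to graded modulator added minutes before ADM, VBL or VCR at parental IC70s (2.0×10^-7 M ADM, 1.5×10^-8 M VBL, 4.5×10^-8 M VCR). Growth counted electronically at 72 h. Reversing concentration = minimum modulator giving 70% inhibition; duplicates, two experiments.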

RCC-2 and RCC-5 cells = test: Inhibition of population growth of rat colon cancer cell lines RCC-2 and RCC-5; type: cell-based; settings: RCC-2 and RCC-5
From the text: The analogs were examined in a panel of tumor cell lines of both intrinsic and acquired drug resistance, as described in Table 1. The rat colon adenocarcinoma cell lines RCC-2 and RCC-5 (ref. 13) were maintained in Ham's F12 medium supplemented with 5% heat-inactivated, fetal bovine serum (Sterile Systems. Hyclone, Logan, Utah). The two rat colon cancer cell lines differ in their degree of cellular differentiation; whereas the RCC-2 cell line is undifferentiated, the RCC-5 cell line is highly mucinous. The human epidermoid carcinoma cell line KB-3-1 and its MDR variant KB-Vl, selected by VBL treatment (ref. 14; courtesy of M. Gottesman. National Cancer Institute), was maintained in DMEM medium supplemented with 10%, heat-inactivated, fetal bovine serum. […]
Mid-exponential cultures were used for all assays. […] Cytotoxicity was determined by quantitation of population growth after 72 h incubation by electronic particle counter (Coulter Electronics, Hialeah, Fla.). […] Colonies were scored 7-11 days later. […]
FIG. 7 represents the toxicity of analog C-20'-deoxy vincovaline (A) and C-20'-deoxy deethyl vincovaline (B) to population growth of the rat colon adenocarcinoma cell lines. The congener was added at various concentrations to RCC-2 (.cndot.) and RCC-5 (Δ) cell cultures and the population cell number was determined 72 hours later. […]

P388 R cells = test: Sensitization of P388 R cells to antitumorous agents; type: cell-based, mouse
Procedure: The sensitization of C-20'-deoxy C-20'-deethyl vincovaline (D-DEV) has been tested on sensitive and resistants P388 cell lines originating from mouse lympnoma.
The resistance to anticancerous drug has been induced on DBA2 mouses bearing P388 cells ascites and maintained by treatment with adryamycin.
The P388 R cells are incubated at 37° C. during 24 hours with constant subtoxic concentrations of antitumoral drugs and increasing concentrations of modulators from 1 to 100 μM.

S180 cells, parental = test: Modulation of intrinsic drug resistance, parental S180; type: cell-based, murine; settings: S180 parental
How it was run: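 Parental S180 cells at 1×10^5 cells/ml treated with modulator (10^-6 M up to non-toxic IC10-20 or solubility limit) added minutes before VBL, VCR or ADM; growth counted electronically after 72 h. Sensitivity index = drug IC50 alone / drug IC50 with modulator; duplicates from two experiments.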

CC[C@]12C=CCN3CC[C@@]4(c5cc([C@]6(C(=O)OC)C[C@H]7CCCN(CCc8c6[nH]c6ccccc86)C7)c(OC)cc5N(C)[C@H]4[C@@](O)(C(=O)OC)[C@@H]1OC(C)=O)[C@@H]32 [analog n° 352, C-20'-deoxy-20'-deethyl-C-14', 16'-epi-VBL]
range of resistance levels over which parental sensitivity was restored [1]: 3-17 fold
reduction in cytotoxicity to the colon cancer cell lines compared to C-20'-deoxy vincovaline (RCC-2 and RCC-5 cells): 10 fold
percentage of cellular survival (P388 R cells; modulator 30 μM, ADM 1.72 μM, 1440 min): 50%
modulator effect on P388 R cells with ADM (in words) (P388 R cells; modulator 100 μM, ADM 0.17 μM): no effect
maximum degree of sensitization to ADM (S180 cells, parental; ADM): 5.5 fold
maximum degree of sensitization to VBL and VCR (S180 cells, parental; VBL and VCR): 2.3-2.7 fold
